Active and inactive are the calls of the source.
Tests used:
[1] = target: Leucine-rich repeat serine/threonine-protein kinase 2 (Homo sapiens) (UniProt Q5S007); conditions: HEK293, 0.03 to 3 uM
Description: Inhibition of GFP-tagged LRRK2 expressed in HEK293 cells assessed as inhibition of Ser935 autophosphorylation at 0.03 to 3 uM after 90 mins by immunoblotting method

[2] = target: Leucine-rich repeat serine/threonine-protein kinase 2 (Homo sapiens) (UniProt Q5S007); conditions: HEK293, 0.03 to 3 uM; remark: listed apart in the source
Description: Inhibition of GFP-tagged LRRK2 expressed in HEK293 cells assessed as inhibition of Ser910 autophosphorylation at 0.03 to 3 uM after 90 mins by immunoblotting method

[3] = target: Leucine-rich repeat serine/threonine-protein kinase 2 (Homo sapiens) (UniProt Q5S007); conditions: 0.03 to 3 uM
Description: Inhibition of LRRK2 in human lymphoblastoid cells assessed as inhibition of Ser935 autophosphorylation at 0.03 to 3 uM after 90 mins by immunoblot method

[4] = target: Leucine-rich repeat serine/threonine-protein kinase 2 (Homo sapiens) (UniProt Q5S007); conditions: 0.03 to 3 uM; remark: listed apart in the source
Description: Inhibition of LRRK2 in human lymphoblastoid cells assessed as inhibition of Ser910 autophosphorylation at 0.03 to 3 uM after 90 mins by immunoblot method

Measured: inhibition

Sequence of Leucine-rich repeat serine/threonine-protein kinase 2 (Homo sapiens) (Q5S007 whole entry): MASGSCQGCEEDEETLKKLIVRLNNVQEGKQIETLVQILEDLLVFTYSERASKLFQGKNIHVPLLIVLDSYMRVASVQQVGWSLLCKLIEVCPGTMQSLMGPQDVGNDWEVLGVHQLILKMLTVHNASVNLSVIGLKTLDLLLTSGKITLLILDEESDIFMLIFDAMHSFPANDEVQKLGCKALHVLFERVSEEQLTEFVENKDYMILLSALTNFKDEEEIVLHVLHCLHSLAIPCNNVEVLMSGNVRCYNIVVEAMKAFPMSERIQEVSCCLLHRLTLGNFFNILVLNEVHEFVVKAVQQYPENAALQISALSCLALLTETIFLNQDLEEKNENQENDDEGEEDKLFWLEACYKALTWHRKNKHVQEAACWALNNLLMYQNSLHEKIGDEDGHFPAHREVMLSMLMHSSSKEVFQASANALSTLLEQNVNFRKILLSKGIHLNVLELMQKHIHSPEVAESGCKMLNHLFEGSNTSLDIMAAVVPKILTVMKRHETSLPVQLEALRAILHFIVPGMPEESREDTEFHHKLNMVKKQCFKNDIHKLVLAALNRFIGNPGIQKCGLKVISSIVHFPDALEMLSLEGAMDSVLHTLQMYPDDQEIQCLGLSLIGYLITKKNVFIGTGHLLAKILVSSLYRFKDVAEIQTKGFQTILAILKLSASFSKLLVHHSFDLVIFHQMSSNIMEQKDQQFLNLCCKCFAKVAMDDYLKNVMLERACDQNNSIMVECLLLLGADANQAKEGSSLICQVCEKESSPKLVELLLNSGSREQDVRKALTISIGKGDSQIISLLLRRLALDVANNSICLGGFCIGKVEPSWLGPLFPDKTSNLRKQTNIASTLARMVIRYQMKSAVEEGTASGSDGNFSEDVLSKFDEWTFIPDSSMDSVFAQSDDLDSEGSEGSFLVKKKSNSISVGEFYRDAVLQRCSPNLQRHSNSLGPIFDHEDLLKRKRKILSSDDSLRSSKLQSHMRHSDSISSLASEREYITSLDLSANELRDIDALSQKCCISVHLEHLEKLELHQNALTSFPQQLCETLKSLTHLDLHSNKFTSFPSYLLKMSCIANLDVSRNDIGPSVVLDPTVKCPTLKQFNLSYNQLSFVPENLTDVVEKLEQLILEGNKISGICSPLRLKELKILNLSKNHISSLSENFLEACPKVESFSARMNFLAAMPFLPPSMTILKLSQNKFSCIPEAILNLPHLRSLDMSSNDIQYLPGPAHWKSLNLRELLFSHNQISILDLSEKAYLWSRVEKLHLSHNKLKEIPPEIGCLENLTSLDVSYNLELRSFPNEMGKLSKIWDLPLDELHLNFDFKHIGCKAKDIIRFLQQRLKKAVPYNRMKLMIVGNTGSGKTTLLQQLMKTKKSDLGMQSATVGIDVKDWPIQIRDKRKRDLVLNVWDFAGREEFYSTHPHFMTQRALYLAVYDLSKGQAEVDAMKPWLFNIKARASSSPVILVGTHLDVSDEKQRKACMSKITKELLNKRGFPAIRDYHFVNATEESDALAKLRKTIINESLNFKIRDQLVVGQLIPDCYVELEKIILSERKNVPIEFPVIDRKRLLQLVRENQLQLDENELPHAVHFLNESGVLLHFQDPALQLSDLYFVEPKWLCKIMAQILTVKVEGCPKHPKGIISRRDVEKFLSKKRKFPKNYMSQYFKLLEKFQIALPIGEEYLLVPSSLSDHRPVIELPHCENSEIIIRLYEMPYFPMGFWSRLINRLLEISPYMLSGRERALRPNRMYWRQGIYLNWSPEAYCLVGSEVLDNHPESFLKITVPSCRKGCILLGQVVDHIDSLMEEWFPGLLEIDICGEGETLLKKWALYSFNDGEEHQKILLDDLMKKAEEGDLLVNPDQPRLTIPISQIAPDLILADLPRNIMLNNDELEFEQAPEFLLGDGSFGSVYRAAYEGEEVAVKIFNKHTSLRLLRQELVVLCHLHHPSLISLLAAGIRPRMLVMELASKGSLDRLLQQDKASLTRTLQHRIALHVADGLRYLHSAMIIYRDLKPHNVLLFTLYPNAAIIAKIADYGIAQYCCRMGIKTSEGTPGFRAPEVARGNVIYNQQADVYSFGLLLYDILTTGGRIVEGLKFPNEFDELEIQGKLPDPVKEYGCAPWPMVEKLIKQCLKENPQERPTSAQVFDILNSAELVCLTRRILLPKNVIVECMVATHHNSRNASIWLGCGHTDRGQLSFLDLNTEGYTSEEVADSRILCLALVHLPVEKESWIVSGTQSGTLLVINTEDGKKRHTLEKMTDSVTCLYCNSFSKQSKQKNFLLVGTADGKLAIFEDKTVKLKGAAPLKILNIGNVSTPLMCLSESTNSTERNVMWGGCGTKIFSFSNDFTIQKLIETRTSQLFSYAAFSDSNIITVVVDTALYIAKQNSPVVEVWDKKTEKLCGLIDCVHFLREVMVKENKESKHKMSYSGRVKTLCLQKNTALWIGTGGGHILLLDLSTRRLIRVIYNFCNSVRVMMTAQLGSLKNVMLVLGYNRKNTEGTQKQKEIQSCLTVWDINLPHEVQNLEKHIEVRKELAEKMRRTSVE

COc1cc(C(=O)N2CCC(N3CCN(C)CC3)CC2)ccc1Nc1ncc2c(n1)N(C)c1ccccc1C(=O)N2C
active: all assays above
